Reference: patent US20100311726A1, “REDUCTION OF BETA-AMYLOID LEVELS BY TREATMENT WITH THE SMALL MOLECULE DIFFERENTIATION-INDUCING FACTOR” (priority 2007, published 2010)
Non-standard residues stand in square brackets, D forms with d. Residues, ends and D or L forms follow the SMILES beside them. Nle = CCCC[C@H](N)C(=O)O

Experiments:
[1] = test system: Dictyostelium discoideum; conditions: cited from earlier work
[2] = test system: human leukemia K562 cells; conditions: Kubohara 1999; cited from earlier work
[3] = test system: APP; assay: APP processing (mature APP, αCTF, βCTF) by western blot; type: cell-based, human; conditions: for effect of kinase inhibitor alone on APP processing / CTF levels: CHO-7W or CHO-CAB, LiCl 1-10 mM; for effect of kinase inhibitor pretreatment on the effect of DIF-1 on APP processing: with 30 μM DIF-1; for effect of proteasome inhibitor alone on APP CTF levels: CHO-CAB, 10 μM
[4] = test system: GSK; conditions: cited from earlier work
[5] = test system: human APLP1; assay: APLP1 metabolism by western blot in CHO-A1 cells; type: cell-based; conditions: 30 μM DIF-1 or 250 nM DAPT, ~20 hours
Experimental: CHO cells that stably express human APLP1, which is a closely related family member of the APPs and known γ-secretase substrate (Eggert et al., 2004), were treated with 30 μM DIF-1, DAPT or DIF-1 plus DAPT (FIG. 7). Equal numbers of CHO-A1 cells stably expressing human APLP1 cells were plated in 6-well dishes and allowed to grow overnight. The next day, the media was removed and replaced with control media (2 ml) or media containing DAPT, DIF-1 or DAPT and DIF-1. […] After washing, blots were probed with HRP-conjugated secondary antibodies (1:5000) for 1 hour at room temperature.

[6] = test system: cyclin D1; assay: Cyclin D1 level by western blot; conditions: for effect on cyclin D1 level (proteasome inhibitor alone): CHO-CAB, 10 μM
Experimental: Following treatment of each cell line with or without DIF-1 (1-30 μM) and/or other inhibitors, cells were lysed in cold RIPA buffer (20 mM Tris-HCl (pH 7.4) buffer containing 150 mM NaCl, 2 mM EDTA, 1% Nonidet® P-40 (NP-40), 50 mM NaF, 1 mM Na3VO4, 1 mM Na2MoO4, 10 mg/ml aprotinin, and 10 mg/ml leupeptin), supplemented with protease inhibitor tablets from Roche (Switzerland). Protein amounts were quantified in triplicate using the BCA assay from Pierce. Equal amounts of protein extracts were fractionated by sodium dodecyl sulfate polyacrylamide gel electrophoresis (SDS-PAGE) and transferred to polyvinylidene difluoride membranes. The membranes were blocked for 1 hour with 5% fat-free powdered milk or 5% BSA, incubated overnight at 4° C. with primary antibodies (1:1000 or 1:5000), washed with TTBS and then incubated at room temperature with appropriate peroxidase-conjugated secondary antibodies (1:5000). Blots were repeatedly washed with TTBS and target proteins were detected using an enhanced chemiluminescence (ECL) system (Amersham Pharmacia Biotech, New Jersey, USA) and XOMAT™ Kodak® film.
Densitometry analysis of western blot data was performed on a PC computer using QuantityOne® software obtained from Bio-Rad® Laboratories, Inc. (California, USA). Loading variations between western blot lanes were normalized according to the GAPDH signal prior to any experimental quantification. Each western blot presented in the figures is representative of at least five independent experiments to ensure reproducibility of the results unless noted otherwise.
CHO-CAB cells were treated with lithium chloride (10mM). […] To ensure that the results observed were due to proteasome inhibition, we assessed the effects of lactacystin and ALLN on cyclin D1 levels. […] The data represents that of three separate experiments.

[7] = test system: APP; assay: APP processing (mature APP, αCTF, βCTF) by western blot; type: cell-based, human; conditions: CHO-7W, 250 nM
Experimental: Total protein was collected in RIPA buffer plus protease inhibitors on ice and briefly sonicated. They lysate was centrifuged at 14,000 rpm for 15 minutes. […] After washing, the blots were probed with a polyclonal HRP-tagged secondary Ab (1:5000) for 1 hour at room temperature then visualized.
A second possibility is that DIF-1 potentiates the activity of y-secretase and processing of αCTFs and βCTFs. To assess this latter possibility, we examined the effect of DIF-1 in the presence of DAPT, a potent γ-secretase inhibitor. Even numbers of CHO-7W cells were plated in 6-well dishes and allowed to grow overnight. The next day, the media was removed and replaced with control media (2 ml) or media containing DAPT, DIF-1 or DAPT and DIF-1. […] After washing, blots were probed with HRP-conjugated secondary antibodies (1:5000) for 1 hour at room temperature. […] It would appear that the mechanism of DIF-1 on APP metabolism is not likely to involve γ-secretase activity, but might impact on either BACE1 levels or activity.
To evaluate this probability, we treated CHO-CAB cells that overexpress human APP^751 and human BACE1 with 30 μM of DIF-1. More specifically, even numbers of CHO-CAB cells were plated in 6-well dishes and allowed to grow overnight. The next day, the media was removed and replaced with control media (2 ml) or media containing DAPT, DIF-1 or DAPT and DIF-1. […] After washing, blots were probed with HRP-conjugated secondary antibodies (1:5000) for 1 hour at room temperature. Each treatment is shown above the blot. […] It would appear that DIF-1 has a greater effect on APP maturation in CHO-CAB cells. Longer exposures reveal the presence of mature APP bands in DIF-1 treated cells.
Next dose-dependent effects of DIF-1 on APP processing were examined. Even numbers of CHO-CAB cells were plated in 6-well dishes and allowed to grow overnight. The next day, cells were treated overnight with either vehicle or increasing concentrations of DIF-1 (5-30 μM).

[8] = test system: APP phosphorylation on residue T668; assay: APP T668 phosphorylation by western blot; type: cell-based, human; conditions: CHO-7W and CHO-CAB; DAPT alone, or DAPT with DIF-1 (30 μM)
Experimental: Next, whether or not DIF-1 treatment affected the degree of T668 phosphorylation was examined by western blot (FIG. 11). Briefly, effects of DIF-1 on APP T668 phosphorylation were compared between vehicle-treated control and 250 nM of DAPT identically in each cell line. Western analysis of 15 μg of total protein was probed overnight at 4° C. with anti-APP Cterminal antibody (C66-676-695) (1:5000) and then detected on film using ECL and HRP-conjugated secondary antibodies (1:5000). […] This band has also been detected in other CHO lines where APP expression is high (˜3 fold) and by different C-terminal APP antibodies (Ab8717-676-695; except 6E10 which recognizes the N-terminal residues 1-17 of the Aβ sequence. For FIG. 11A, cells were treated with DAPT, and DAPT+DIF then were probed with anti-APP antibody (C66). For FIG. 11B, CHO-7W cells were treated with DAPT, and DAPT+DIF, and then probed with polyclonal anti-P668 APP antibody (1:1000) overnight at 4° C. in 5% BSA. After washing, cells were probed with a rabbit HRP-conjugated secondary antibody (1:5000) in BSA for 1 hour at room temperature and signals were detected on film using ECL. FIG. 11C represents CHO-CAB cells and FIG. 11D represents H4 cells expressing APP^SW.

[9] = test system: APP ubiquitin-conjugates; assay: APP ubiquitin-conjugates by immunoprecipitation and western blot; conditions: CHO-CAB; DIF-1 30 μM, lactacystin 10 μM, ALLN 10 μM
Experimental: For immunoprecipitations, 1 mg of total protein was diluted with extraction buffer and precleared with protein G-conjugated agarose beads (Pierce). The precleared samples were incubated overnight with anti-APP antibodies or nonimmune IgG (Jackson Laboratories). Immunocomplexes were captured with Protein G agarose beads, washed five times with extraction buffer and heated for 5 min at 95° C. in SDS gel-loading buffer.
CHO-CAB cell protein extracts (1 mg) were immunoprecipitated using APP antibodies. The immunoprecipitated complexes were analyzed by western blotting using anti-ubiquitin antibodies. […] Molecular Weight markers (kDa) are shown on the left. GAPDH levels are shown below each blot. The data represents that of three separate experiments.
To determine whether the proteasome-mediated degradation of APP is accompanied by increased levels of poly-ubiquitinated APP, we investigated the ubiquitination status of APP in extracts of CHO-CAB cells treated in the absence or presence of DIF-1 (30 μM), lactacystin (10 μM), ALLN (10 μM), DIF-1+lactacystin and DIF-1+ALLN.

For CCCCCC(=O)c1c(O)cc(OC)c(Cl)c1O [DIF-3, 1-(3-chloro-2,6-dihydroxy-4-methoxyphenyl)hexan-1-one], the “activity in inducing stalk-cell differentiation” value ([1]; in words) is given as “much less active” and the “anti-leukemic potency among DIF analogs” value [2] is given as “most potent anti-leukemic agent”.

With CC[C@H](CO)Nc1nc(NCc2ccccc2)c2ncn(C(C)C)c2n1 [roscovitine, 2-(R)-[[9-(1-Methylethyl)-6-[(phenylmethyl)amino]-9H-purin-2-yl]amino]-1 butanol] the “effect of kinase inhibitor alone on APP processing / CTF levels” value [3] was “no effect on APP metabolism” and the “effect of kinase inhibitor pretreatment on the effect of DIF-1 on APP processing” value [3] was “neither blocked nor potentiated the effect of DIF-1 on APP CTF production”.

For O=C1Cc2c([nH]c3ccc(Br)cc23)-c2ccccc2N1 [kenpaullone, 9-bromo-7,12-dihydro-indolo[3,2d][1]benzazepin-6(5H)-one], the IC50 [4] is listed as 23 nM, the “effect of kinase inhibitor alone on APP processing / CTF levels” value [3] is listed as “no effect on the level of APP CTFs” and the “effect of kinase inhibitor pretreatment on the effect of DIF-1 on APP processing” value [3] is listed as “neither attenuated nor potentiated the effect of DIF-1 on APP processing”.

In the case of CCCCC(=O)c1c(O)c(Cl)c(OC)c(Cl)c1O [DIF-2, 1-(3,5-dichloro-2,6-dihydroxy-4-methoxyphenyl)pentan-1-one], the “specific activity relative to DIF-1 (stalk-cell differentiation)” value ([1]; percent of the activity of DIF-1) is listed as about 40%.

In the case of C[C@H](NC(=O)Cc1cc(F)cc(F)c1)C(=O)N[C@H](C(=O)OC(C)(C)C)c1ccccc1 [DAPT, N4-[N-(3,5-difluorophenacetyl-1-alanyl)]-S-phenylglycine tert-butyl ester, reference compound], the “APLP1 maturation, protein levels, CTF levels” value [5] is reported as “significant increase in the levels of APLP1 CTF”, the “effect on cyclin D1 level” value ([6]; CHO-7W, 30 μM DIF-1 or 250 nM DAPT) is reported as “no effect” and the “α- and βCTF levels with γ-secretase inhibitor alone” value [7] is reported as “increase in the levels of both α- and βCTFs”. The “amount of T668 phosphorylated APP CTFs” value [8] was “greatly increased the amount of detectable phosphorylated APP at residue T668”.

In the case of CCCC[C@@H](C=O)NC(=O)[C@H](CC(C)C)NC(=O)[C@H](CC(C)C)NC(C)=O [ALLN, Acetyl-L-Leucyl-L-Leucyl-L-Norleucinal, reference compound] (Ac-Leu-Leu-[Nle]-aldehyde), the “level of APP ubiquitin-conjugates (single agent)” value [9] is reported as “increased the level of APP ubiquitin conjugates”, the “effect on cyclin D1 level (proteasome inhibitor alone)” value [6] is reported as “increased the levels of cyclin D1” and the “effect of proteasome inhibitor alone on APP CTF levels” value [3] is reported as “induced an increase in CTF levels”.

With CC(=O)N[C@@H](CSC(=O)[C@]1([C@@H](O)C(C)C)NC(=O)[C@H](C)[C@@H]1O)C(=O)O [lactacystin, 3S-hydroxy-2R-(1-hydroxy-2-methylpropyl)-4R-methyl-5-oxo-2 pyrrolidine-carboxylate-N-acetyl-L-cysteine, reference compound] the “level of APP ubiquitin-conjugates (single agent)” value [9] was “increased the level of APP ubiquitin conjugates”, the “effect on cyclin D1 level (proteasome inhibitor alone)” value [6] was “increased the levels of cyclin D1” and the “effect of proteasome inhibitor alone on APP CTF levels” value [3] was “induced an increase in the level of αCTF and βCTF”.
